In ChEMBL document CHEMBL2073966, “Cloning and functional characterization of a new multispecific organic anion transporter, OAT-K2, in rat kidney” (Mol Pharmacol, 1999):

target: T1, Solute carrier organic anion transporter family member 1A3 (Rattus norvegicus, UniProt P70502); assay: TP_TRANSPORTER: inhibition of Taurocholate uptake in OAT-K2-expressing MDCK cells; type: functional, cell-based; conditions: dog
T1 sequence (P70502 whole entry): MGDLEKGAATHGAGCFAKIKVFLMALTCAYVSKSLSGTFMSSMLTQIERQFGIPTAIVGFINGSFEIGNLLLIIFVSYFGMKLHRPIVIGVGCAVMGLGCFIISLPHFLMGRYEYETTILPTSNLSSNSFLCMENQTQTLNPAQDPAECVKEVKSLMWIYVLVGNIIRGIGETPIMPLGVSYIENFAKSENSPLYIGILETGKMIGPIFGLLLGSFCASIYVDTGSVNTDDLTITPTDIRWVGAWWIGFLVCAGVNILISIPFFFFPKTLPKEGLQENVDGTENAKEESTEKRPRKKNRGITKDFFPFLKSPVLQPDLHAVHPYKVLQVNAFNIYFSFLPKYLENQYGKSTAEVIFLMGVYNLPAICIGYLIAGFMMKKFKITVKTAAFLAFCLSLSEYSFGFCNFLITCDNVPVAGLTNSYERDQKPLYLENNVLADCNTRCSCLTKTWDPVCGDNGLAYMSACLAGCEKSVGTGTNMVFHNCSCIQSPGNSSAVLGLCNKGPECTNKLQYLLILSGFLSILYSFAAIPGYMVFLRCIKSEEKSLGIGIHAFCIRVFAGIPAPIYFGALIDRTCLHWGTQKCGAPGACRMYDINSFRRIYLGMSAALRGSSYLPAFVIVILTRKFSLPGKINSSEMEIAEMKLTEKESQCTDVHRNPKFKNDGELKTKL

Row | SMILES | Activity
1 | C[C@H](CCC(=O)O)[C@H]1CC[C@H]2[C@@H]3CC[C@@H]4C[C@H](O)CC[C@]4(C)[C@H]3C[C@H](O)[C@]12C [DEOXYCHOLIC ACID] | inhibitor [+]
2 | C[C@@H]1C[C@H]2[C@@H]3CCC4=CC(=O)C=C[C@]4(C)[C@@]3(F)[C@@H](O)C[C@]2(C)[C@@]1(O)C(=O)CO [DEXAMETHASONE] | inhibitor [+]
3 | C[C@]12CC[C@@H]3c4ccc(O)cc4CC[C@H]3[C@@H]1CC[C@@H]2O [ESTRADIOL] | inhibitor [+]
4 | C[C@]12CC[C@@H]3c4ccc(O)cc4CC[C@H]3[C@@H]1C[C@@H](O)[C@@H]2O [ESTRIOL] | inhibitor [+]
5 | C[C@H](CCC(=O)NCC(=O)O)[C@H]1CC[C@H]2[C@@H]3[C@H](O)C[C@@H]4C[C@H](O)CC[C@]4(C)[C@H]3CC[C@]12C [GLYCOCHENODEOXYCHOLATE] | inhibitor [+]
6 | C[C@H](CCC(=O)NCC(=O)O)[C@H]1CC[C@H]2[C@@H]3[C@H](O)C[C@@H]4C[C@H](O)CC[C@]4(C)[C@H]3C[C@H](O)[C@]12C [GLYCOCHOLIC ACID] | inhibitor [+]
7 | COc1ccc2c(c1)c(CC(=O)O)c(C)n2C(=O)c1ccc(Cl)cc1 [INDOMETHACIN] | inhibitor [+]
8 | C[C@]12C=CC(=O)C=C1CC[C@@H]1[C@@H]2[C@@H](O)C[C@@]2(C)[C@H]1CC[C@]2(O)C(=O)CO [PREDNISOLONE] | inhibitor [+]
9 | CCCN(CCC)S(=O)(=O)c1ccc(C(=O)O)cc1 [PROBENECID] | inhibitor [+]
10 | CC(=O)S[C@@H]1CC2=CC(=O)CC[C@]2(C)[C@H]2CC[C@@]3(C)[C@@H](CC[C@@]34CCC(=O)O4)[C@H]12 [SPIRONOLACTONE] | inhibitor [+]
11 | O=C1OC(c2ccc(O)c(S(=O)(=O)[O-])c2)(c2ccc(O)c(S(=O)(=O)[O-])c2)c2c(Br)c(Br)c(Br)c(Br)c21.[Na+].[Na+] [SULFOBROMOPHTHALEIN SODIUM] | inhibitor [+]
12 | C[C@H](CCC(=O)NCCS(=O)(=O)O)[C@H]1CC[C@H]2[C@@H]3[C@H](O)C[C@@H]4C[C@H](O)CC[C@]4(C)[C@H]3CC[C@]12C [TAUROCHENODEOXYCHOLATE] | inhibitor [+]
13 | C[C@H](CCC(=O)NCCS(=O)(=O)O)[C@H]1CC[C@H]2[C@@H]3CC[C@@H]4C[C@H](O)CC[C@]4(C)[C@H]3C[C@H](O)[C@]12C [TAURODEOXYCHOLIC ACID] | inhibitor [+]
14 | C[C@]12CC[C@H]3[C@@H](CCC4=CC(=O)CC[C@@]43C)[C@@H]1CC[C@@H]2O [TESTOSTERONE] | inhibitor [+]
15 | C[C@H](CCC(=O)O)[C@H]1CC[C@H]2[C@@H]3[C@@H](O)C[C@@H]4C[C@H](O)CC[C@]4(C)[C@H]3CC[C@]12C [URSODIOL] | inhibitor [+]

target: T1, Solute carrier organic anion transporter family member 1A3; assay: TP_TRANSPORTER: uptake in OAT-K2-expressing MDCK cells; type: functional, cell-based; conditions: dog

Row | SMILES | Activity
16 | CCCCC[C@H](O)/C=C/[C@H]1[C@H](O)CC(=O)[C@@H]1C/C=C\CCCC(=O)O [DINOPROSTONE] | substrate [+]

target: T1, Solute carrier organic anion transporter family member 1A3; assay: TP_TRANSPORTER: uptake in Xenopus laevis oocytes; type: functional, cell-based; conditions: oocyte

Row | SMILES | Activity
17 | CCCCC[C@H](O)/C=C/[C@H]1[C@H](O)CC(=O)[C@@H]1C/C=C\CCCC(=O)O [DINOPROSTONE] | substrate [+]
18 | Nc1nc2ncc(CNc3ccc(C(=O)N[C@@H](CCC(=O)O)C(=O)O)cc3)nc2c(=O)[nH]1 [FOLIC ACID] | substrate [+]
19 | CN(Cc1cnc2nc(N)nc(N)c2n1)c1ccc(C(=O)N[C@@H](CCC(=O)O)C(=O)O)cc1 [METHOTREXATE] | substrate [+]
